Assay results published in paper PMC11133798, “Vosoritide treatment for children with hypochondroplasia: a phase 2 trial” (eClinicalMedicine, 2024).

Columns and labels:
[1] = test system: children with achondroplasia; conditions: cited from earlier work
Description: Vosoritide is a c-type natriuretic peptide (CNP) analog that upon binding its receptor on chondrocytes inhibits the mitogen-activated protein kinase (MAPK) pathway. This pathway is downstream of FGFR3 and is activated in hypochondroplasia and achondroplasia. […] Based on this study and additional trials, vosoritide has now been approved in numerous countries for use in children ... || The standing height SDS increased by 0.37 SD during the year of treatment or 0.41 SD using hypochondroplasia specific growth charts. This is slightly greater than the 0.27 SD increase seen in the Phase 3 study of children with achondroplasia. In prior studies with children with achondroplasia, the increase in growth velocity and gains in height SDS have persisted over multiple years.[16]^,[17] Participants in the current study with positive responses to therapy have been enrolled in an ongoing extension study to assess if this will be true in hypochondroplasia as well. It is reassuring that th ...

urine cGMP = experiment: Urine cGMP after vosoritide injection, normalized to urine creatinine; type: in vivo, human
Procedure: Secondary outcomes included the change in body proportions as measured by sitting height to standing height ratio and arm span minus standing height, as well as the change in bone age to chronological age ratio after 12 months of therapy. Sitting height was measured three times at each visit using a sitting height table. The average of the three values was used. Sitting height to standing height ratio and arm span minus standing height were standardized for age and sex using available reference data and SDS were calculated.[11]^,[12] Bone age X-rays were read by a single reviewer who was blinded to participant ID, age and time point. Exploratory endpoints included pharmacokinetic parameters, pharmacodynamic markers including collagen X biomarker (CXM) levels and urine cGMP production, and changes in quality of life as measured by the QoLISSY scale.[13] CXM levels in serum were measured in duplicate via an ELISA assay at the Shriners Hospitals for Children in Portland, Oregon as previously described.[14] The average of the two values was used for analysis. Urine samples were obtained for cGMP measurement at baseline and 60, 120, and 240 min after vosoritide injections at the Day 1, Month 6 and Month 12 visits. cGMP levels were assayed at ICON Laboratories (Farmingdale, NY) and were normalized to urine creatinine levels at each time point.

For “PGQEHPNARKYKGANKKGLSKGCFGLKLDRIGSMSGLGC (disulfide) [vosoritide, recombinant 39-amino-acid C-type natriuretic peptide analog expressed in E. coli, cyclic by an intramolecular disulfide bond]”, the “Adjusted mean difference in annualized growth velocity” value ([1]; Phase 3, placebo-controlled, children with achondroplasia, 15 μg/kg/day) is given as 1.57 cm/year, the “Increase in standing height SDS” value ([1]; Phase 3 study of children with achondroplasia) is given as 0.27 SD and the “Average maximum cGMP increase from baseline across visits” value (urine cGMP; Day 1, Month 6, Month 12 compared) is given as “not significantly different at Day 1, Month 6 or Month 12”. The “Time of peak urine cGMP after administration” value (urine cGMP; samples at baseline, 60, 120 and 240 min after injection) was 2 h and the “Time to evident increase in urine cGMP after administration” value (urine cGMP; samples at baseline, 60, 120 and 240 min after injection, Day 1, Month 6, Month 12) was at most 1 h.
